Data as given in the supplement of paper PMC10307832.

Legend:
Assay in all cases: relative viability (nuclei count vs DMSO), 5 days (fraction); higher = more cells survive
[1] = compound: Cn1cc(-c2cnn3c(N)c(Br)c([C@@H]4CCCNC4)nc23)cn1 + Cc1nc(Nc2ncc(C(=O)Nc3c(C)cccc3Cl)s2)cc(N2CCN(CCO)CC2)n1 [Dasatinib] (partner 0.075 µM)
In short: (§1)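 Values are medians from duplicate plates. Each reflects relative viability, defined as the nuclei count of treated wells over that of vehicle wells. Lung cancer cell lines in 1536-well plates were pin-tool dosed one day after seeding with one drug alone or with a fixed anchor-drug dose plus five library-drug doses (not always all listed) in √10 steps, then fixed, stained and imaged at 4× after 5 days.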

[2] = compound: Cn1cc(-c2cnn3c(N)c(Br)c([C@@H]4CCCNC4)nc23)cn1 + CC1(C)CCC(c2ccc(Cl)cc2)=C(CN2CCN(c3ccc(C(=O)NS(=O)(=O)c4ccc(N[C@H](CCN5CCOCC5)CSc5ccccc5)c(S(=O)(=O)C(F)(F)F)c4)cc3)CC2)C1 [Navitoclax] (partner 0.5 µM)
In short: as §1

[3] = compound: Cn1cc(-c2cnn3c(N)c(Br)c([C@@H]4CCCNC4)nc23)cn1 + CCNC(=O)c1noc(-c2cc(C(C)C)c(O)cc2O)c1-c1ccc(CN2CCOCC2)cc1 [Luminespib] (partner 0.01 µM)
In short: as §1

[4] = compound: Cn1cc(-c2cnn3c(N)c(Br)c([C@@H]4CCCNC4)nc23)cn1 + CC(C)C[C@H](NC(=O)[C@H](Cc1ccccc1)NC(=O)c1cnccn1)B(O)O [Bortezomib] (partner 0.002 µM)
In short: as §1

Cell Line	relative viability ([1]; first compound 0.05 µM)	relative viability ([1]; first compound 0.1581 µM)	relative viability ([1]; first compound 0.5 µM)	relative viability ([1]; first compound 1.581 µM)	relative viability ([1]; first compound 5 µM)	relative viability ([2]; first compound 0.05 µM)	relative viability ([2]; first compound 0.1581 µM)	relative viability ([2]; first compound 0.5 µM)	relative viability ([2]; first compound 1.581 µM)	relative viability ([2]; first compound 5 µM)	relative viability ([3]; first compound 0.05 µM)	relative viability ([3]; first compound 0.1581 µM)	relative viability ([3]; first compound 0.5 µM)	relative viability ([3]; first compound 1.581 µM)	relative viability ([3]; first compound 5 µM)	relative viability ([4]; first compound 0.05 µM)	relative viability ([4]; first compound 0.1581 µM)	relative viability ([4]; first compound 0.5 µM)	relative viability ([4]; first compound 1.581 µM)	relative viability ([4]; first compound 5 µM)
NCI-H1734	0.469	0.506	0.435	0.345	0.338	0.885	0.906	0.918	0.57	0.733	0.197	0.185	0.201	0.178	0.149	1.02	1.13	0.798	0.865	0.746
NCI-H1755	0.4	0.42	0.42	0.407	0.253	1.12	1.03	0.961	0.994	0.969	0.465	0.534	0.394	0.562	0.194	1.04	1.03	0.952	0.879	0.711
NCI-H1792	–	0.852	0.624	0.933	0.425	0.35	0.674	0.322	0.366	0.677	0.488	0.616	0.439	0.79	0.317	0.801	1.1	0.703	0.551	0.371
NCI-H1915	0.307	0.351	0.355	0.347	0.283	0.796	0.805	0.736	0.765	0.775	0.987	0.86	0.722	0.667	0.695	1.14	1.01	1.06	0.784	1.03
NCI-H1975	0.393	0.355	0.409	0.331	0.346	1.21	1.14	1.01	0.908	0.989	0.105	0.197	0.256	0.139	0.167	0.444	0.403	0.296	0.32	0.31
NCI-H1993	0.619	0.601	0.545	0.549	0.507	0.793	0.898	–	0.873	0.831	1.03	0.887	0.543	0.666	0.567	1.09	1.16	–	0.931	0.846
NCI-H2009	0.3	0.291	0.257	0.219	0.216	1.16	1.28	1.1	1.1	1	1.04	1.09	0.98	0.962	0.889	1.01	1.06	0.972	0.834	0.826
NCI-H2023	0.616	0.513	0.427	0.225	0.156	1.06	0.727	0.789	0.304	0.192	0.873	0.305	0.234	0.167	0.123	1.04	0.923	0.733	0.235	0.147
NCI-H2085	0.239	0.235	0.229	0.24	0.203	1.3	1.13	1.18	1.09	0.943	0.4	0.477	0.461	0.417	0.339	1.12	1.13	1.08	0.813	0.909
NCI-H2087	0.856	0.936	1.09	0.835	0.809	1.02	1.14	1.04	1.05	0.948	0.143	0.168	0.192	0.151	0.175	0.893	0.876	0.872	0.622	0.911
NCI-H2126	0.581	0.58	0.568	0.506	0.488	0.915	0.883	0.861	0.804	0.863	0.755	0.964	0.983	0.608	0.595	1.1	1.22	1.15	1.02	1.14
NCI-H2228	0.572	0.66	0.459	0.294	0.241	1.09	1.12	1.13	0.64	0.481	0.138	0.132	0.212	0.124	0.112	1.1	1.1	0.943	0.705	0.521
NCI-H2347	0.319	0.255	0.285	0.324	0.209	0.742	0.818	0.735	0.576	0.678	0.506	0.677	0.473	0.409	0.297	0.839	1.01	0.747	0.727	0.869
NCI-H2405	0.21	0.458	0.205	0.201	0.203	0.815	0.976	0.904	0.867	0.624	0.717	0.858	0.705	0.73	0.439	0.961	1.06	1.01	0.95	0.691
NCI-H3122	0.905	0.833	0.614	0.84	0.64	1.06	1.05	1.05	1.03	1.11	0.0947	0.0737	0.0857	0.0666	0.12	1.12	1.02	1.04	1.11	1.05
PC-3 [JPC-3]	1.02	1.09	0.826	0.775	1.01	0.75	0.899	0.735	0.832	0.899	0.702	0.642	0.619	0.564	0.748	0.818	0.834	0.76	0.755	0.907
